{"source": "patent US20010009764A1", "about": "“Endothelial-derived toxic factor” (priority 1997, published 2001)", "key": {"neuronal cultures [1]": {"system": "neuronal cultures", "experiment": "Neuronal cytotoxicity (LDH release) of conditioned media from rat brain endothelial cells treated with PKC modulators", "assay_type": "cell-based", "settings": "for cytotoxic response as % of that elicited by BIM: inhibitor 1 μM on endothelial cells, BIM-mediated cytotoxicity = 100%; for EDTF^BIM release from endothelial cell cultures: treatment with other PKC inhibitors", "description": "FIG. 8. Specificity of endothelial derived toxic factor EDTF response to Protein Kinase C inhibition. To confirm that production of EDTF in response to BIM (EDTF^BIM) was indeed related to PKC inhibition, the effect of other PKC inhibitors, calphostin (Cal) and stauroporine (S'sporin) as well as the PKC agonist PMA, were examined. Endothelial cell cultures were incubated in serum-free media (control) containing either BIM (1 μM); BIM and PMA (1 μM each); calphostin (1 μM); or staurosporine (1 μM). The media were collected after 24 hours and added to neuronal cultures and cytotoxicity (LDH release) was measured after 24 hours. Data are expressed as a percentage of the BIM-mediated cytotoxicity (100%).\n(§1) Cell death by necrosis was determined by release of cytoplasmic lactate dehydrogenase (LDH) (Grammas et al., “Production Of Neurotoxic Factors By Brain Endothelium In AD”, Ann NY Acad Sci, 826:47-55, 1997). Medium (100 μl) from the neuronal cultures was removed, added to a 96-well plate, the chromogenic substrate added, and the plate was incubated at room temperature for 30 min in darkness. The A490 of each well was measured to determine LDH activity. Data (% cytotoxicity) were expressed as a percentage of total LDH released by treatment with 1% Triton X-100 added to the same well. Vascular LDH release, determined for microvessel-containing inserts placed in wells without neuronal cells, was subtracted from each co-culture point. Each point was performed in duplicate.\nFor the preparation of endothelial-conditioned media, the media were removed and confluent endothelial cell cultures washed with versene and fresh serum-free DMEM containing (unless otherwise indicated) 1 μM of the PKC inhibitor, bisindolylmaleimide (BIM), was added. The conditioned medium was collected, after 8-24 hrs, and centrifuged at 100,000 g to remove debris and suspended cells, and 5% heat-inactivated horse serum was added prior to application of media to neuronal cultures.\nNeurons were obtained and cultured from 15-18 day rat embryos by published methods (Dawson V. L., Dawson, T. M., London E. D., Bredt D. S., Snyder S. H., “Nitric Oxide Mediates Glutamate Neurotoxicity in Primary Cortical Cultures”, Proc. Natl. Acad. Sci. USA, 88:6368-6371, 1991, with our modifications: Grammas P, Moore P, Weigel P H, “Production of Neurotoxic Factors by Brain Endothelium in AD”, Ann. NY Acad. Sci., 826, 1997). Cerebral cortices were isolated, dissociated in Brooks-Logan solution (5% phosphate buffered saline, 0.04 M sucrose, 10 mM HEPES, pH 7.5, 0.03 M glucose) by trituration and seeded in polylysine-coated 24 well plates (15), containing DMEM with 5% heat-inactivated horse serum. After five days of culture, the cells were treated with 10 μg of 5-fluoro-2′-deoxyuridine per well and cultures were maintained for an additional 2 to 3 weeks."}, "[2]": {"system": "primary cerebral cortical cultures", "experiment": "Neurotoxicity (LDH release) of AD microvessel-conditioned medium", "assay_type": "cell-based, rat", "description": "Microvessels stored in liquid nitrogen, were quick-thawed at 37° C. and centrifuged at 2,000×g for 10 min. The vessels were washed 3 times with cold Hank's balanced salt-solution and resuspended in serum-free DMEM (2 ml) containing 1% lactalbumin hydrolysate. Microvessels were allowed to “recover” for 1 h, after which they released little LDH. The microvessels were washed by centrifugation and resuspended at a concentration of 100 μg protein per ml in serum-free DMEM containing 1% lactalbumin hydrolysate. The microvessels were then incubated for variable times (4-24 h) in a CO2 incubator, centrifuged, and the conditioned medium was sterile-filtered through a 0.4 μm filter, and used immediately.\nProcedures for primary neuronal cultures prepared from fetal rat brains were previously described (Grammas P, Moore P, Weigel P H, “Production of Neurotoxic Factors by Brain Endothelium in AD”, Ann. NY Acad. Sci., 826, 1997, which is hereby incorporated herein by reference.) Neurons are obtained and cultured from 17 day fetal rats. […] The purity of these cultures was determined by antibody reactivity to neuronal-specific enolase.\nCell death by necrosis was determined by release of cytoplasmic lactate dehydrogenase (LDH) (Grammas et al., “Production Of Neurotoxic Factors By Brain Endothelium In AD”, Ann NY Acad Sci, 826:47-55, 1997). […] The A490 of each well was measured to determine LDH activity. […]"}, "[3]": {"system": "primary cerebral cortical cultures", "experiment": "Neuronal necrosis by candidate molecules at 4 h", "assay_type": "cell-based, rat", "settings": "data not shown", "description": "as §1"}, "neuronal cultures [4]": {"system": "neuronal cultures", "assay_type": "cell-based, rat", "description": "as §1\nNeurons were obtained and cultured from 15-18 day rat embryos by published methods (Dawson V. L., Dawson, T. M., London E. D., Bredt D. S., Snyder S. H., “Nitric Oxide Mediates Glutamate Neurotoxicity in Primary Cortical Cultures”, Proc. Natl. Acad. Sci. USA, 88:6368-6371, 1991, with our modifications: Grammas P, Moore P, Weigel P H, “Production of Neurotoxic Factors by Brain Endothelium in AD”, Ann. NY Acad. Sci., 826, 1997). […]"}, "endothelial cultures": {"system": "endothelial cultures", "assay_type": "cell-based, rat", "description": "as §1\nSmall arterioles from rat brain were isolated, and endothelial cell cultures initiated, as previously published (Diglio C. A., Grammas P., Giacomelli F. and Wiener J., “Rat Cerebral Microvascular Smooth Muscle Cells in Culture”, J. Cell Physiol., 129:131-141, 1986; Diglio C. A., Liu W., Grammas P., Giacomelli F., and Wiener J., “Isolation and Characterization of Cerebral Resistance Vessel Endothelium in Culture”, Tissue and Cell, 25:833-846, 1993). […] Cells (passages 10-15) were maintained in Dulbecco's modified Eagle's medium (DMEM) and 10% fetal calf serum and subcultured using trypsin-versene (0.025%)."}}}
{"molecule": "CCCCCCCCCCCCCC(=O)O[C@@H]1[C@@H](C)[C@@]2(O)[C@@H](C=C(CO)C[C@]3(O)C(=O)C(C)=C[C@@H]23)[C@@H]2C(C)(C)[C@]12OC(C)=O", "note": "[PMA, phorbol myristate acetate]", "values": [{"measurement": "reduction of neuronal cytotoxicity (EDTF^BIM release) compared to BIM alone", "setting": "neuronal cultures [1]; concurrent PMA and BIM, 1 μM each, media collected 24 hours, LDH after 24 hours", "result": "approximately 60%"}]}
{"molecule": "C[C@@H]1C[C@@H]([C@H](O)CC2CC(=O)NC(=O)C2)C(=O)[C@@H](C)C1", "note": "[cycloheximide]", "values": [{"measurement": "decrease in neuronal necrosis", "setting": "[2]; AD microvessels incubated with cycloheximide 10 μg/ml", "result": 60, "unit": "%"}]}
{"molecule": "CN[C@@H]1C[C@H]2O[C@@](C)([C@@H]1OC)n1c3ccccc3c3c4c(c5c6ccccc6n2c5c31)C(=O)NC4", "note": "[staurosporine]", "values": [{"measurement": "cytotoxic response as % of that elicited by BIM", "setting": "neuronal cultures [1]", "result": 47, "unit": "%"}]}
{"molecule": "CCCCCCCCCCCCC/C=C/[C@@H](O)[C@@H](N)CO", "note": "[sphingosine]", "values": [{"measurement": "EDTF^BIM release from endothelial cell cultures", "setting": "neuronal cultures [1]", "result": "elicited EDTF^BIM release"}]}
{"molecule": "tumor necrosis factor α", "values": [{"measurement": "neuronal necrosis at 4 h", "setting": "[3]", "result": "little neuronal necrosis"}]}
{"molecule": "bisindolylmaleimide [BIM]", "values": [{"measurement": "% cytotoxicity when added directly to neuronal cultures", "setting": "neuronal cultures [4]", "result": 16, "unit": "%"}, {"measurement": "% cytotoxicity on endothelial cultures", "setting": "endothelial cultures", "result": 10, "unit": "%"}]}
{"molecule": "calphostin", "values": [{"measurement": "cytotoxic response as % of that elicited by BIM", "setting": "neuronal cultures [1]", "result": 60, "unit": "%"}, {"measurement": "EDTF^BIM release from endothelial cell cultures", "setting": "neuronal cultures [1]", "result": "elicited EDTF^BIM release"}]}
{"molecule": "amyloid β", "values": [{"measurement": "neuronal necrosis at 4 h", "setting": "[3]", "result": "little neuronal necrosis"}]}
{"molecule": "N=C(NCCC[C@H](N)C(=O)O)N[N+](=O)[O-]", "note": "[N^GNitro-L-arginine]", "values": [{"measurement": "% neurotoxicity of conditioned medium", "setting": "[2]; AD microvessels with or without preincubation with 10 μM N^GNitro-L-arginine", "result": "69±12", "unit": "%"}]}
